The values that follow are results of earlier work, collected in patent US20160052938A1, “SPIRO[3H-INDOLE-3,2'-PYRROLIDIN]-2(1H)-ONE COMPOUNDS AND DERIVATIVES AS MDM2-P53 INHIBITORS” (Boehringer Ingelheim International GmbH, priority 2014, published 2016).

The subject of this data set is acute lymphoblastic leukemia (ALL) xenograft models with mixed-lineage leukemia (MLL) rearrangement. To be noted: Carol et al. 2013; cited from earlier work.

In the case of `CCOc1cc(C(C)(C)C)ccc1C1=N[C@@](C)(c2ccc(Cl)cc2)[C@@](C)(c2ccc(Cl)cc2)N1C(=O)N1CCN(CCCS(C)(=O)=O)CC1` [RG-7112], the efficacy result is “particularly efficacious”.
